Target: T1, Human Neuropeptide Y2 Receptor (Homo sapiens, UniProt P49146)
T1 construct: purchased CHEMICON HTS066M
T1 sequence (P49146 1-381): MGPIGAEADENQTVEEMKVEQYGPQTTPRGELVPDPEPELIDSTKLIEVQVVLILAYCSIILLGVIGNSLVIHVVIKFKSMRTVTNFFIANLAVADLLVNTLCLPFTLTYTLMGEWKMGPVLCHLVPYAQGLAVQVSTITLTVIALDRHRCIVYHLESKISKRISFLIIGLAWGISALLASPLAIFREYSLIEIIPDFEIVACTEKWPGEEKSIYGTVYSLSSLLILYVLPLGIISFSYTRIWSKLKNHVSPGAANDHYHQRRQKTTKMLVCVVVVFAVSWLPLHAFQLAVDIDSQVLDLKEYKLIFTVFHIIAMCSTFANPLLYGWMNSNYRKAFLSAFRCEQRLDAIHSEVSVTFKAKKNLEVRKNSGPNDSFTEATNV
Experiment: Radioligand binding competition assay (RLB)
Conditions: Table 3; human 125I-PYY (1-36) 0.02 nM, Y2 receptor membranes; read-out: Ki
Method: The filtration RLB assay was carried out in 96-well plates in a final volume of 100 μl per well. Freeze-dried test peptides were dissolved in 100% dimethyl sulfoxide (DMSO) to stock solutions of 1 mM and serial dilutions were performed in assay buffer (50 mM HEPES, 5 mM MgCl2, 1 mM CaCl2), pH 7.4) containing 0.2% ovalbumin. […] Next, 80 μL membranes (HTS066M, ChemiSCREEN™ Human Neuropeptide Y2 Receptor Membrane Preparation, CHEMICON) were added to each well to give a final protein concentration of 0.5 μg/well. The plates were sealed and incubated at room temperature for 2 hours in a plate shaker set at 400 rpm. The incubation was stopped by vacuum filtration onto 0.5% poly-ethylene amine (PEI) presoaked GF/C filters using a 96-well FilterMate™ harvester (Perkin Elmer) followed by four washes with 300 μl/well ice-cold wash buffer (50 mM HEPES, 500 mM NaCl, pH7.4). Filter plates were then dried for 60 min at room temperature and the bottom of the plates was sealed with backing tape UniFilter-96. Finally, 50 μl/well scintillation counter cocktail (Microscint20, Packard) was added and the radioactivity was counted in the Packard TopCount NXT scintillation counter. IC50 values (the half maximal inhibitory concentration of the agonist) were calculated by nonlinear regression analysis of sigmoidal dose-response curves.

Row | SMILES | Ki [nM]
1 | CC(C)CC(=O)N[C@@H](C)C(=O)N1CCC[C@H]1C(=O)N[C@@H](CCC(=O)O)C(=O)N[C@@H](CCCCNC(=O)COCCOCCNC(=O)COCCOCCNC(=O)CC[C@H](NC(=O)CCCCCCCCCCCCCCCCC(=O)O)C(=O)O)C(=O)N1CCC[C@H]1C(=O)N[C@@H](CCC(=O)O)C(=O)N[C@@H](CCC(=O)O)C(=O)N[C@@H](CCC(=O)O)C(=O)N[C@@H](C)C(=O)N[C@@H](CO)C(=O)N[C@@H](C)C(=O)N[C@@H](CCC(=O)O)C(=O)N[C@@H](CCC(=O)O)C(=O)N[C@@H](CC(C)C)C(=O)N[C@@H](CCC(N)=O)C(=O)N[C@@H](CCCNC(=N)N)C(=O)N[C@@H](Cc1ccc(O)cc1)C(=O)N[C@@H](Cc1ccc(O)cc1)C(=O)N[C@H](C(=O)N[C@@H](CO)C(=O)N[C@@H](CC(C)C)C(=O)N[C@@H](CCCNC(=N)N)C(=O)N[C@@H](Cc1c[nH]cn1)C(=O)N[C@@H](Cc1ccc(O)cc1)C(=O)N[C@@H](Cc1ccc(O)cc1)C(=O)N[C@@H](CC(N)=O)C(=O)N[C@@H](Cc1c[nH]c2ccccc12)C(=O)N[C@@H](CC(C)C)C(=O)N[C@H](C(=O)N[C@@H](CCCNC(=N)N)C(=O)N[C@@H](CCC(N)=O)C(=O)N[C@@H](CCCNC(=N)N)C(=O)N[C@@H](Cc1ccc(O)cc1)C(N)=O)[C@@H](C)O)C(C)C [Compound 25, N{alpha-4}-(3-methylbutanoyl)-N{epsilon-7}-[2-(2-{2-[2-(2-{2-[(4S)-4-carboxy-4-(17-carboxyheptadecanamido)butanamido]ethoxy}ethoxy)acetamido]ethoxy}ethoxy)acetamido]-[4A,7K,9E,11E,14A,18Q,22V,28Y,30W,31L]hPYY (4-36)] | 4.36
2 | CC(C)CC(=O)N[C@@H](C)C(=O)N1CCC[C@H]1C(=O)N[C@@H](CCC(=O)O)C(=O)N[C@@H](CCCCNC(=O)COCCOCCNC(=O)COCCOCCNC(=O)CC[C@H](NC(=O)CCCCCCCCCCCCCCCCC(=O)O)C(=O)O)C(=O)N1CCC[C@H]1C(=O)N1CCC[C@H]1C(=O)N[C@@H](CCC(=O)O)C(=O)N[C@@H](CC(=O)O)C(=O)N[C@@H](C)C(=O)N[C@H](C(=O)N1CCC[C@H]1C(=O)N[C@@H](CCC(=O)O)C(=O)N[C@@H](CCC(=O)O)C(=O)N[C@@H](CC(C)C)C(=O)N[C@@H](CCC(N)=O)C(=O)N[C@@H](CCCNC(=N)N)C(=O)N[C@@H](Cc1ccc(O)cc1)C(=O)N[C@@H](Cc1ccc(O)cc1)C(=O)N[C@H](C(=O)N[C@@H](CO)C(=O)N[C@@H](CC(C)C)C(=O)N[C@@H](CCCNC(=N)N)C(=O)N[C@@H](Cc1c[nH]cn1)C(=O)N[C@@H](Cc1ccc(O)cc1)C(=O)N[C@@H](Cc1ccc(O)cc1)C(=O)N[C@@H](CC(N)=O)C(=O)N[C@@H](Cc1c[nH]c2ccccc12)C(=O)N[C@@H](CC(C)C)C(=O)N[C@H](C(=O)N[C@@H](CCCNC(=N)N)C(=O)N[C@@H](CCC(N)=O)C(=O)N[C@@H](CCCNC(=N)N)C(=O)N[C@@H](Cc1ccc(O)cc1)C(N)=O)[C@@H](C)O)C(C)C)[C@@H](C)O [Compound 26, N{alpha-4}-(3-methylbutanoyl)-N{epsilon-7}-[2-(2-{2-[2-(2-{2-[(4S)-4-carboxy-4-(17-carboxyheptadecanamido)butanamido]ethoxy}ethoxy)acetamido]ethoxy}ethoxy)acetamido]-[4A,7K,9P,13T,18Q,22V,28Y,30W,31L]hPYY (4-36)] | 0.77
3 | CC(C)CC(=O)N[C@@H](C)C(=O)N1CCC[C@H]1C(=O)N[C@@H](CCC(=O)O)C(=O)N[C@@H](CCCCNC(=O)COCCOCCNC(=O)COCCOCCNC(=O)CC[C@H](NC(=O)CCCCCCCCCCCCCCCCC(=O)O)C(=O)O)C(=O)N1CCC[C@H]1C(=O)N1CCC[C@H]1C(=O)N[C@@H](CCC(=O)O)C(=O)N[C@@H](CC(=O)O)C(=O)N[C@@H](C)C(=O)N[C@@H](CCC(=O)O)C(=O)N1CCC[C@H]1C(=O)N[C@@H](CCC(=O)O)C(=O)N[C@@H](CCC(=O)O)C(=O)N[C@@H](CC(C)C)C(=O)N[C@@H](CCC(N)=O)C(=O)N[C@@H](CCCNC(=N)N)C(=O)N[C@@H](Cc1ccc(O)cc1)C(=O)N[C@@H](Cc1ccc(O)cc1)C(=O)N[C@H](C(=O)N[C@@H](CO)C(=O)N[C@@H](CC(C)C)C(=O)N[C@@H](CCCNC(=N)N)C(=O)N[C@@H](Cc1c[nH]cn1)C(=O)N[C@@H](Cc1ccc(O)cc1)C(=O)N[C@@H](Cc1ccc(O)cc1)C(=O)N[C@@H](CC(N)=O)C(=O)N[C@@H](Cc1c[nH]c2ccccc12)C(=O)N[C@@H](CC(C)C)C(=O)N[C@H](C(=O)N[C@@H](CCCNC(=N)N)C(=O)N[C@@H](CCC(N)=O)C(=O)N[C@@H](CCCNC(=N)N)C(=O)N[C@@H](Cc1ccc(O)cc1)C(N)=O)[C@@H](C)O)C(C)C [Compound 27, N{alpha-4}-(3-methylbutanoyl)-N{epsilon-7}-[2-(2-{2-[2-(2-{2-[(4S)-4-carboxy-4-(17-carboxyheptadecanamido)butanamido]ethoxy}ethoxy)acetamido]ethoxy}ethoxy)acetamido]-[4A,7K,9P,13E,18Q,22V,28Y,30W,31L]hPYY (4-36)] | 0.96

The next lines start with the values.

Row | Ki [nM] | SMILES
4 | 2.22 | CC(C)CC(=O)N[C@@H](C)C(=O)N1CCC[C@H]1C(=O)N[C@@H](CCC(=O)O)C(=O)N[C@@H](CCCCNC(=O)COCCOCCNC(=O)COCCOCCNC(=O)CC[C@H](NC(=O)CCCCCCCCCCCCCCCCC(=O)O)C(=O)O)C(=O)N1CCC[C@H]1C(=O)N[C@@H](CCC(=O)O)C(=O)N[C@@H](CCC(=O)O)C(=O)N[C@@H](CC(=O)O)C(=O)N[C@@H](C)C(=O)N[C@@H](CO)C(=O)N1CCC[C@H]1C(=O)N[C@@H](CCC(=O)O)C(=O)N[C@@H](CCC(=O)O)C(=O)N[C@@H](CC(C)C)C(=O)N[C@@H](CCC(N)=O)C(=O)N[C@@H](CCCNC(=N)N)C(=O)N[C@@H](Cc1ccc(O)cc1)C(=O)N[C@@H](Cc1ccc(O)cc1)C(=O)N[C@H](C(=O)N[C@@H](CO)C(=O)N[C@@H](CC(C)C)C(=O)N[C@@H](CCCNC(=N)N)C(=O)N[C@@H](CCCCN)C(=O)N[C@@H](Cc1ccc(O)cc1)C(=O)N[C@@H](Cc1ccc(O)cc1)C(=O)N[C@@H](CC(N)=O)C(=O)N[C@@H](Cc1c[nH]c2ccccc12)C(=O)N[C@@H](CC(C)C)C(=O)N[C@H](C(=O)N[C@@H](CCCNC(=N)N)C(=O)N[C@@H](CCC(N)=O)C(=O)N[C@@H](CCCNC(=N)N)C(=O)N[C@@H](Cc1ccc(O)cc1)C(N)=O)[C@@H](C)O)C(C)C [Compound 24, N{alpha-4}-(3-methylbutanoyl)-N{epsilon-7}-[2-(2-{2-[2-(2-{2-[(4S)-4-carboxy-4-(17-carboxyheptadecanamido)butanamido]ethoxy}ethoxy)acetamido]ethoxy}ethoxy)acetamido]-[4A,7K,9E,18Q,22V,26K,28Y,30W,31L]hPYY (4-36)]
5 | 6.03 | CC(C)CC(=O)N[C@@H](C)C(=O)N1CCC[C@H]1C(=O)N[C@@H](CCC(=O)O)C(=O)N[C@@H](CCCCNC(=O)COCCOCCNC(=O)COCCOCCNC(=O)CC[C@H](NC(=O)CCCCCCCCCCCCCCCCC(=O)O)C(=O)O)C(=O)N1CCC[C@H]1C(=O)N[C@@H](CCC(=O)O)C(=O)N[C@@H](CCC(=O)O)C(=O)N[C@@H](CC(=O)O)C(=O)N[C@H](C(=O)N[C@@H](CO)C(=O)N1CCC[C@H]1C(=O)N[C@@H](CCC(=O)O)C(=O)N[C@@H](CCC(=O)O)C(=O)N[C@@H](CC(C)C)C(=O)N[C@@H](CCC(N)=O)C(=O)N[C@@H](CCCNC(=N)N)C(=O)N[C@@H](Cc1ccc(O)cc1)C(=O)N[C@@H](Cc1ccc(O)cc1)C(=O)N[C@H](C(=O)N[C@@H](CCC(=O)O)C(=O)N[C@@H](CC(C)C)C(=O)N[C@@H](CCCNC(=N)N)C(=O)N[C@@H](Cc1c[nH]cn1)C(=O)N[C@@H](Cc1ccc(O)cc1)C(=O)N[C@@H](Cc1ccc(O)cc1)C(=O)N[C@@H](CC(N)=O)C(=O)N[C@@H](Cc1c[nH]c2ccccc12)C(=O)N[C@@H](CC(C)C)C(=O)N[C@H](C(=O)N[C@@H](CCCNC(=N)N)C(=O)N[C@@H](CCC(N)=O)C(=O)N[C@@H](CCCNC(=N)N)C(=O)N[C@@H](Cc1ccc(O)cc1)C(N)=O)[C@@H](C)O)C(C)C)[C@@H](C)O [Compound 28, N{alpha-4}-(3-methylbutanoyl)-N{epsilon-7}-[2-(2-{2-[2-(2-{2-[(4S)-4-carboxy-4-(17-carboxyheptadecanamido)butanamido]ethoxy}ethoxy)acetamido]ethoxy}ethoxy)acetamido]-[4A,7K,9E,12T,18Q,22V,23E,28Y,30W,31L]hPYY (4-36)]
